Key:
Type in all cases: functional
[1] = system: MOLT-4; assay: Cytotoxicity against human MOLT4 cells assessed as growth inhibition after 48 hrs by sulforhodamine B assay; conditions: MOLT-4, 48 h; for CC50: read-out: LC50 (the source's name)
[2] = system: NCI-H226; assay: Cytotoxicity against human NCI-H226 cells assessed as growth inhibition after 48 hrs by sulforhodamine B assay; conditions: NCI-H226, 48 h
[3] = system: SNB-19; assay: Cytotoxicity against human SNB19 cells assessed as growth inhibition after 48 hrs by sulforhodamine B assay; conditions: SNB-19, 48 h
[4] = system: UACC-257; assay: Cytotoxicity against human UACC257 cells assessed as growth inhibition after 48 hrs by sulforhodamine B assay; conditions: UACC-257, 48 h
[5] = system: TK-10; assay: Cytotoxicity against human TK10 cells assessed as growth inhibition after 48 hrs by sulforhodamine B assay; conditions: TK-10, 48 h
[6] = system: MCF7; assay: Cytotoxicity against human MCF7 cells assessed as growth inhibition after 48 hrs by sulforhodamine B assay; conditions: MCF7, 48 h
[7] = system: CCRF-CEM; assay: Cytotoxicity against human CCRF-CEM cells assessed as cell growth at 0.01 uM after 48 hrs by sulforhodamine B assay relative to control; conditions: read-out: Activity
[8] = system: 786-0; assay: Cytotoxicity against human 786-0 cells assessed as cell growth at 0.01 uM after 48 hrs by sulforhodamine B assay relative to control; conditions: 786-0, 48 h, read-out: Activity
[9] = system: NCI/ADR-RES; assay: Cytotoxicity against human NCI/ADR-RES cells assessed as cell growth at 0.01 uM after 48 hrs by sulforhodamine B assay relative to control; conditions: read-out: Activity
[10] = system: IGROV-1; assay: Cytotoxicity against human IGROV1 cells assessed as cell growth at 0.01 uM after 48 hrs by sulforhodamine B assay relative to control; conditions: IGROV-1, 48 h, read-out: Activity
[11] = system: U-251; assay: Cytotoxicity against human U251 cells assessed as cell growth at 0.01 uM after 48 hrs by sulforhodamine B assay relative to control; conditions: U-251, 48 h, read-out: Activity
[12] = system: NCI-H322M; assay: Cytotoxicity against human NCI-H322M cells assessed as cell growth at 0.01 uM after 48 hrs by sulforhodamine B assay relative to control; conditions: read-out: Activity
[13] = system: HOP-62; assay: Cytotoxicity against human HOP62 cells assessed as cell growth at 0.01 uM after 48 hrs by sulforhodamine B assay relative to control; conditions: HOP-62, 48 h, read-out: Activity
[14] = system: NCI-H522; assay: Cytotoxicity against human NCI-H522 cells assessed as cell growth at 0.1 uM after 48 hrs by sulforhodamine B assay relative to control; conditions: NCI-H522, 48 h, read-out: Activity
[15] = system: SNB-19; assay: Cytotoxicity against human SNB19 cells assessed as cell growth at 0.1 uM after 48 hrs by sulforhodamine B assay relative to control; conditions: SNB-19, 48 h, read-out: Activity
[16] = system: IGROV-1; assay: Cytotoxicity against human IGROV1 cells assessed as cell growth at 0.1 uM after 48 hrs by sulforhodamine B assay relative to control; conditions: IGROV-1, 48 h, read-out: Activity
[17] = system: TK-10; assay: Cytotoxicity against human TK10 cells assessed as cell growth at 0.1 uM after 48 hrs by sulforhodamine B assay relative to control; conditions: TK-10, 48 h, read-out: Activity
[18] = system: HL-60(TB); assay: Cytotoxicity against human HL-60(TB) cells assessed as cell growth at 1 uM after 48 hrs by sulforhodamine B assay relative to control; conditions: HL-60, 48 h, read-out: Activity
[19] = system: NCI-H322M; assay: Cytotoxicity against human NCI-H322M cells assessed as cell growth at 1 uM after 48 hrs by sulforhodamine B assay relative to control; conditions: read-out: Activity
[20] = system: HCC 2998; assay: Cytotoxicity against human HCC2998 cells assessed as cell growth at 1 uM after 48 hrs by sulforhodamine B assay relative to control; conditions: HCC 2998, 48 h, read-out: Activity
[21] = system: SNB-19; assay: Cytotoxicity against human SNB19 cells assessed as cell growth at 1 uM after 48 hrs by sulforhodamine B assay relative to control; conditions: SNB-19, 48 h, read-out: Activity
[22] = system: T47D; assay: Cytotoxicity against human T47D cells assessed as cell growth at 1 uM after 48 hrs by sulforhodamine B assay relative to control; conditions: read-out: Activity
[23] = system: RPMI-8226; assay: Cytotoxicity against human RPMI8226 cells assessed as cell growth at 10 uM after 48 hrs by sulforhodamine B assay relative to control; conditions: RPMI-8226, 48 h, read-out: Activity
[24] = system: NCI-H23; assay: Cytotoxicity against human NCI-H23 cells assessed as cell growth at 10 uM after 48 hrs by sulforhodamine B assay relative to control; conditions: NCI-H23, 48 h, read-out: Activity
[25] = system: UACC-257; assay: Cytotoxicity against human UACC257 cells assessed as cell growth at 10 uM after 48 hrs by sulforhodamine B assay relative to control; conditions: UACC-257, 48 h, read-out: Activity
[26] = system: ACHN; assay: Cytotoxicity against human ACHN cells assessed as cell growth at 10 uM after 48 hrs by sulforhodamine B assay relative to control; conditions: read-out: Activity
[27] = system: PC-3; assay: Cytotoxicity against human PC3 cells assessed as cell growth at 10 uM after 48 hrs by sulforhodamine B assay relative to control; conditions: PC-3, 48 h, read-out: Activity
[28] = system: MDA-MB-468; assay: Cytotoxicity against human MDA-MB-468 cells assessed as cell growth at 10 uM after 48 hrs by sulforhodamine B assay relative to control; conditions: MDA-MB-468, 48 h, read-out: Activity
[29] = system: HL-60(TB); assay: Cytotoxicity against human HL-60(TB) cells assessed as cell growth at 100 uM after 48 hrs by sulforhodamine B assay relative to control; conditions: HL-60, 48 h, read-out: Activity
[30] = system: MOLT-4; assay: Cytotoxicity against human MOLT4 cells assessed as cell growth at 100 uM after 48 hrs by sulforhodamine B assay relative to control; conditions: MOLT-4, 48 h, read-out: Activity
[31] = system: RPMI-8226; assay: Cytotoxicity against human RPMI8226 cells assessed as cell growth at 100 uM after 48 hrs by sulforhodamine B assay relative to control; conditions: RPMI-8226, 48 h, read-out: Activity
[32] = system: HCT-15; assay: Cytotoxicity against human HCT15 cells assessed as cell growth at 100 uM after 48 hrs by sulforhodamine B assay relative to control; conditions: HCT-15, 48 h, read-out: Activity
[33] = system: SF-268; assay: Cytotoxicity against human SF268 cells assessed as cell growth at 100 uM after 48 hrs by sulforhodamine B assay relative to control; conditions: SF-268, 48 h, read-out: Activity
[34] = system: M14; assay: Cytotoxicity against human M14 cells assessed as cell growth at 100 uM after 48 hrs by sulforhodamine B assay relative to control; conditions: M14, 48 h, read-out: Activity
[35] = system: MDA-MB-435; assay: Cytotoxicity against human MDA-MB-435 cells assessed as cell growth at 100 uM after 48 hrs by sulforhodamine B assay relative to control; conditions: MDA-MB-435, 48 h, read-out: Activity
[36] = system: SN12C; assay: Cytotoxicity against human SN12C cells assessed as cell growth at 100 uM after 48 hrs by sulforhodamine B assay relative to control; conditions: read-out: Activity

## COc1cc(-c2cc(/C=C/C(=O)c3ccc(N)cc3)[nH]n2)cc(OC)c1OC
[1]
  GI50: 1.91 µM
  TGI: 8.51 µM
  CC50: > 100 µM
[2]
  GI50: 1.71 µM
  LC50 (concentration killing 50% of cells): 7.18 µM
  TGI: 3.51 µM
[3]
  GI50: 2.34 µM
  TGI: 9.98 µM
[3]; read-out: LC50 (the source's name)
  CC50: 34 µM
[4]
  GI50: 1.87 µM
  LC50: 8.66 µM
  TGI: 4.02 µM
[5]
  GI50: 4.84 µM
  LC50: 51.6 µM
  TGI: 17.5 µM
[6]
  GI50: 1.5 µM
  LC50: 60.5 µM
  TGI: 5.42 µM
[7]
  growth at 0.01 µM: 96%
[8]
  growth at 0.01 µM: 92%
[9]
  growth at 0.01 µM: 106%
[10]
  growth at 0.01 µM: 107%
[11]
  growth at 0.01 µM: 98%
[12]
  growth at 0.01 µM: 95%
[13]
  growth at 0.01 µM: 83%
[14]
  growth at 0.1 µM: 92%
[15]
  growth at 0.1 µM: 94%
[16]
  growth at 0.1 µM: 108%
[17]
  growth at 0.1 µM: 100%
[18]
  growth at 1 µM: 66%
[19]
  growth at 1 µM: 94%
[20]
  growth at 1 µM: 110%
[21]
  growth at 1 µM: 79%
[22]
  growth at 1 µM: 66%
[23]
  growth at 10 µM: -35%
[24]
  growth at 10 µM: -19%
[25]
  growth at 10 µM: -59%
[26]
  growth at 10 µM: -61%
[27]
  growth at 10 µM: 1%
[28]
  growth at 10 µM: -58%
[29]
  growth at 100 µM: -12%
[30]
  growth at 100 µM: -20%
[31]
  growth at 100 µM: -40%
[32]
  growth at 100 µM: -17%
[33]
  growth at 100 µM: -80%
[34]
  growth at 100 µM: -78%
[35]
  growth at 100 µM: -85%
[36]
  growth at 100 µM: -86%

## COc1ccc(C(=O)/C=C/c2cc(-c3cc(OC)c(OC)c(OC)c3)n[nH]2)cc1
[1]
  TGI: 6.82 µM
  CC50: > 100 µM
[2]
  TGI: 4.07 µM
[3]
  TGI: 3.03 µM
[4]
  TGI: 3.74 µM
[5]
  LC50: > 100 µM
  TGI: 5.77 µM
[6]
  LC50: 7.61 µM
  TGI: 2.96 µM
[7]
  growth at 0.01 µM: 99%
[8]
  growth at 0.01 µM: 98%
[9]
  growth at 0.01 µM: 102%
[10]
  growth at 0.01 µM: 101%
[11]
  growth at 0.01 µM: 97%
[12]
  growth at 0.01 µM: 92%
[13]
  growth at 0.01 µM: 99%
[14]
  growth at 0.1 µM: 87%
[15]
  growth at 0.1 µM: 88%
[16]
  growth at 0.1 µM: 102%
[17]
  growth at 0.1 µM: 93%
[18]
  growth at 1 µM: 99%
[19]
  growth at 1 µM: 93%
[20]
  growth at 1 µM: 94%
[21]
  growth at 1 µM: 79%
[22]
  growth at 1 µM: 78%
[23]
  growth at 10 µM: -41%
[24]
  growth at 10 µM: 2%
[25]
  growth at 10 µM: -65%
[26]
  growth at 10 µM: -83%
[27]
  growth at 10 µM: -68%
[28]
  growth at 10 µM: -92%
[29]
  growth at 100 µM: -31%
[30]
  growth at 100 µM: -4%
[31]
  growth at 100 µM: -34%
[32]
  growth at 100 µM: -33%
[33]
  growth at 100 µM: -37%
[34]
  growth at 100 µM: -7%
[35]
  growth at 100 µM: -44%
[36]
  growth at 100 µM: 7%

Source: ChEMBL document CHEMBL4138123, “Design, synthesis and biological evaluation of novel pyrazolochalcones as potential modulators of PI3K/Akt/mTOR pathway and inducers of apoptosis in breast cancer cells” (Eur J Med Chem, 2017)
